Measurements published in patent US20030108484A1, “Individualization of therapy with antineoplastic agents” (McGill University, priority 2001, published 2003).
Like-named read-outs stand apart in the source and are kept apart here. Marks after values point to notes of the source that are not given here.

Key:
[1] = tested on: 1X-Ab; assay: Competitive antigen ELISA, cross-reactivity of 1X-Ab; format: binding, rabbit; conditions: for % Cross-Reaction 1X-Ab: competitive antigen ELISA, 0 = absence of inhibition or inhibition no higher than 40% at highest concentration tested (5×10^−3 M)
Experimental: (§1) Buffers and water without additives are filtered through millipore filters and kept for 1 week. BSA, antibodies, Tween™ 20 and horse radish peroxidase conjugates are added to these buffers and water just prior to use. Urine samples are usually collected 4 hours after drinking a cup of coffee (instant or brewed with approximately 100 mg of caffeine per cup) and stored at −80° C. The urine samples are diluted 10 times with sodium phosphate buffer (620 mosm, pH 7.50) and are subsequently diluted with water to give concentrations of AAMU and 1X no higher than 3×10^−6 M in the ELISA. All the pipettings are done with an eight-channel pipette, except those of the antibody and sample solutions. Starting with the last well, 100 μL of a carbonate buffer (100 mM, pH 9.6) containing 2.5 μg mL^−1 antibodies are added to each well. After 90 min. at room temperature, the wells are washed three times with […] of TPB: isotonic sodium phosphate buffer (310 mosm, pH 7.50) containing 0.05% Tween™ 20.
(§2) After the initial wash, unoccupied sites are blocked by incubation for 90 min. at room temperature with 100 μL TBP containing 3% BSA. The wells are washed four times with 100 μL TPB. […] The microplate is gently shaken with an orbital shaker at room temperature for 3-4 hours. The wells are washed three times with 100 μL TPB containing 1% BSA and three times with water containing 0.05% Tween™ 20. To the washed plate is added 150 μL of a substrate buffer composed of citric acid (25 mM) and sodium phosphate dibasic buffer (50 mM, pH 5.0) containing 0.06% hydrogen peroxide and 0.04% o-phenylenediamine hydrochloride.
(§3) Buffers and water without additives were filtered through millipore filters and kept for 1 week. BSA, antibodies, Tween™ 20 and horse radish peroxidase conjugates were added to these buffers and water just prior to use. Urine samples were usually collected 4 hours after drinking a cup of coffee (instant or brewed with approximately 100 mg of caffeine per cup) and stored at −80° C. They were diluted 10 times with sodium phosphate buffer (620 mosm, pH 7.50) and were subsequently diluted with water to give concentrations of AAMU and 1X no higher than 3×10^−6 M in the ELISA. All the pipettings were done with an eight-channel pipette, except those of the antibody and sample solutions. Starting with the last well, 100 μL of a carbonate buffer (100 mM, pH 9.6) containing 2.5 μg mL^−1 antibodies was pipetted. After 90 min. at room temperature, the wells were washed three times with 100 μL of TPB: isotonic sodium phosphate buffer (310 mosm, pH 7.50) containing 0.05% TweenTm 20.
(§4) After the initial wash, unoccupied sites were blocked by incubation for 90 min. at room temperature with […] TBP containing 3% BSA. The wells were washed four times with 100 μL TPB. […] The microplate was gently shaken with an orbital shaker at room temperature for 3-4 hours. The wells were washed three times with 100 μL with TPB containing 1% BSA and three times with water containing 0.05% Tween™ 20. To the washed plate was added 150 μL of a substrate buffer composed of citric acid (25 mM) and sodium phosphate dibasic buffer (50 mM, pH 5.0) containing 0.06% hydrogen peroxide and 0.04% o-phenylenediamine hydrochloride. After 20 min. at room temperature with shaking, the reaction was stopped with 50 μL of 2.5 N HCl.
(§5) The cross reactivities of AAMU-Ab and 1X-Ab were tested using a wide variety of caffeine metabolites and structural analogs (Table 2 below).

[2] = tested on: AAMU-Ab; assay: Competitive antigen ELISA, cross-reactivity of AAMU-Ab; format: binding, rabbit; conditions: for % Cross-Reaction AAMU-Ab: competitive antigen ELISA, 0 = absence of inhibition or inhibition no higher than 40% at highest concentration tested (5×10^−3 M)
Experimental: as §1, §2, §3, §4, §5

[3] = tested on: breast cancer; conditions: first-line chemotherapy; cited from earlier work
[4] = cited from earlier work
[5] = individuals receiving 550 mg/m^2; cited from earlier work
[6] = tested on: estrogen receptor-positive breast cancer and bone metastases; conditions: cited from earlier work
[7] = p<0.05, cited from earlier work

SMILES	% Cross-Reaction 1X-Ab [1] [%]	% Cross-Reaction AAMU-Ab [2]	other results
Cn1c(=O)[nH]c2[nH]c(=O)n(C)c2c1=O [1,7-Dimethyluric acid]	0	0%	–
Cn1c(=O)[nH]c(=O)c2[nH]cnc21 [3-Methyl Xanthine]	0	0%	–
CC(=O)O[C@@]12CO[C@@H]1C[C@H](O)[C@@]1(C)C(=O)[C@H](O)C3=C(C)[C@@H](OC(=O)[C@H](O)[C@@H](NC(=O)OC(C)(C)C)c4ccccc4)C[C@@](O)([C@@H](OC(=O)c4ccccc4)[C@H]21)C3(C)C [Docetaxel]	–	–	front-line response rate in breast cancer [3]: up to 73%
O=c1[nH]c(=O)c2[nH]cnc2[nH]1 [Xanthine]	0	0^a %	–
Cn1c(=O)[nH]c2[nH]c(=O)[nH]c2c1=O [1-Methyluric acid]	11	0%	–
Cn1c(=O)[nH]c2ncn(C)c2c1=O [1,7-Dimethyl Xanthine (Paraxanthine), 1,7-Dimethyl Xanthine]	0.5	0%	–
O=c1cc[nH]c(=O)[nH]1 [Uracil]	0	0%	–
O=c1[nH]c(=O)c2[nH]c(=O)[nH]c2[nH]1 [Uric acid]	0	0%	–
CC(=O)Nc1c(N)n(C)c(=O)[nH]c1=O [5-Acetamino-6-amino-1-methyluracil]	0	100%	IC50 ([2]; read-out: concentration required for 50% inhibition in the competitive antigen ELISA, AAMU-Ab): 1.5 µM
Cn1c(=O)[nH]c2nc[nH]c2c1=O [1-Methyl Xanthine (1X), 1-Methyl Xanthine]	100	0%	IC50 ([1]; read-out: concentration required for 50% inhibition in the competitive antigen ELISA, 1X-Ab): 10 µM
Cn1cnc2[nH]c(=O)[nH]c(=O)c21 [7-Methyl Xanthine]	0	0%	–
Nc1ccc(S(=O)(=O)c2ccc(N)cc2)cc1 [dapsone]	–	–	adverse reactions ([4]; fast acetylators): 17%; adverse reactions ([4]; slow acetylators): 46%
Cc1nc2[nH]c(=O)[nH]c(=O)c2[nH]1 [8-Methyl Xanthine]	0	0%	–
Nc1nc2nc[nH]c2c(=O)[nH]1 [Guanine]	0	0%	–
Cn1c(=O)c2c(ncn2C)n(C)c1=O [1,3,7-Trimethyl Xanthine (Caffeine), 1,3,7-Trimethyl Xanthine]	0	0%	–
COc1cccc2c1C(=O)c1c(O)c3c(c(O)c1C2=O)C[C@@](O)(C(=O)CO)C[C@@H]3O[C@H]1C[C@H](N)[C@H](O)[C@H](C)O1 [doxorubicin]	–	–	incidence of cardiomyopathy (congestive heart failure and dysrhythmias) [5]: approximately 2%; front-line response rate in breast cancer [3]: 53%
CC(=O)Nc1c(N)[nH]c(=O)[nH]c1=O [5-Acetamino-6-amino-uracil]	0	0.6%	–
O=c1[nH]cnc2nc[nH]c12 [Hypoxanthine]	0	0%	–
CC/C(=C(\c1ccccc1)c1ccc(OCCN(C)C)cc1)c1ccccc1 [tamoxifen]	–	–	occurrence of hormone flare (increasing bone pain, erythema, hypercalcemia) ([6]; after 7-14 days of treatment, women with estrogen receptor-positive breast cancer and bone metastases): approximately 5%; individuals with hormone flare who respond to tamoxifen ([6]; individuals with hormone flare): 75%
CC(=O)Nc1c(N)n(C)c(=O)n(C)c1=O [5-Acetamino-6-amino-1,3-dimethyluracil]	0	0%	–
Cn1c(=O)c2[nH]cnc2n(C)c1=O [1,3-Dimethyl Xanthine (Theophylline), 1,3-Dimethyl Xanthine]	0.2	0%	–
Cn1cnc2c1c(=O)[nH]c(=O)n2C [3,7-Dimethyl Xanthine (Theobromine), 3,7-Dimethyl Xanthine]	0	0%	–
COc1ccc2c(c1)[C@]13CCCC[C@@H]1[C@H](C2)N(C)CC3 [Dextromethorphan]	–	–	mean performance +/-SE ([7]; extensive metabolizers (EMs)): 95+/−0.5%; mean performance +/-SE ([7]; poor metabolizers (PMs)): 86+/−6%
